Measurements published in US10940179B2, “Therapeutic compositions for the treatment of dry eye disease” (SCHEPENS EYE RESEARCH INSTITUTE, priority 2010, dated 2021).

Assays:
[1] = test system: IL-17 (Th17 cells) and IFN-γ (Th1 cells); assay: Real-time PCR of inflammatory cytokines in draining lymph nodes of DED mice; format: in vivo, mouse; conditions: treated vs untreated DED mice
Excerpt: (§1) Eight to ten week-old female C57BLI6 mice (Charles River Laboratory, Wilmington, Mass.) were used in accordance with the standards in the ARVO Statement for the Use of Animals in Ophthalmic and Vision Research. The research protocol was approved by the Schepens Eye Research Institute Animal Care and Use Committee. Dry eye was induced in murine eyes using a Controlled Environment Chamber (CEC) which exposes the mice to high-flow desiccated air. To achieve maximum ocular surface dryness, the conditions in CEC were supplemented with topical application of 1% atropine sulfate (Falcon Pharma, Fort Worth, Tex.) twice for the first 48 hours and subcutaneous injections of 0.1 ml of 5 mg/ml of scopolamine hydrobromide (Sigma-Aldrich, St. Louis, Mo.) three times a day, for the entire duration of the experiment.
Five mice (10 eyes) were included in each group. […]
(§2) Anti-VEGF-C antibodies (VGX-100; Vegenics Limited, Australia) were administered intraperitonealy daily from day 1 to day 10 to DED mice. Mice were assessed clinically using corneal fluorescent staining. […]
(§3) Real time PCR was performed to quantify expression of different VEGF growth factors (VEGF-A, VEGF-C, VEGF-D) and their receptors (VEGFR-2, VEGFR-3) in the cornea at days 6, 10 and 14 (FIG. 8) and to determine the levels of proinflammatory cytokines.

CD11b+ cells = assay: Enumeration of CD11b+ cells in DED corneas (immunohistochemistry); format: in vivo, mouse
Excerpt: (§4) Eight to ten week-old female C57BLI6 mice (Charles River Laboratory, Wilmington, Mass.) were used in accordance with the standards in the ARVO Statement for the Use of Animals in Ophthalmic and Vision Research. The research protocol was approved by the Schepens Eye Research Institute Animal Care and Use Committee. Dry eye was induced in murine eyes using a Controlled Environment Chamber (CEC) which exposes the mice to high-flow desiccated air. […]
(§5) Freshly excised corneas were washed in PBS, fixed in acetone for 15 minutes and then double stained with CD31 and LYVE-1 as described previously. To analyze infiltration of CD11b^+/LYVE-1 cells, corneas from three mice from each group were taken and cells were counted in 5-6 areas in the periphery ([…] area from the limbus) of each cornea in a masked fashion, using epifluorescence microscope (model E800; Nikon, Melville, N.Y.) at 40× magnification. The mean number of cells was obtained by averaging the total number of cells in all the areas studied and the result was expressed as the number of positive cells per mm^2.
as §2

corneal lymphatics = assay: Corneal lymphangiogenesis in DED mice (CD31/LYVE-1 staining, morphometry); parameters: species or system mouse; conditions: in vivo blockade of VEGF-C
Excerpt: as §4, §5
Morphology of lymphatics was analyzed using an automated image analysis program written with Matlab (The Mathworks, Inc., Natick, Mass.). […] The resultant isolated lymphatic vessels were analyzed morphologically using two metrices, Lymphatic Area (LA) and Lymphatic Caliber (LC). […]

VEGF-C, -D, R3 = assay: Real-time PCR of pro-lymphangiogenic growth factors and receptors in DE corneas; format: in vivo, mouse; conditions: DED mice, VEGF-C blockade
Excerpt: as §1
Five mice (10 eyes) were included in each group. Two corneas were pooled together to equal as one sample and stored at −80° C. in Trizol (Invitrogen, Carlsbad, Calif.; catalog No. 15596026) until future use. Total RNA was isolated from these corneas using the RNeasy microkit (Qiagen, Valencia, Calif.; catalog No. 74004). Equal amounts of RNA were used to synthesize cDNA using SuperScript™ III Reverse Trancriptase (Invitrogen, Carlsbad, Calif.; catalog No. 18080) according to the manufacturer's recommendations. Real-Time PCR was performed using FAM-MGB dye labeled predesigned primers (Applied Biosystem, Foster City, Calif.) for GAPDH (assay ID.Mm999999 15_gl), VEGF-A (Mm00437304_ml), VEGF-C (Mrn00437313_ml), VEGF-D (Mm00438965_ml), VEGFR-2 (Mm00440099_ml), VEGFR-3 (Mm00433337_ml). 2.5 μl of cDNA was loaded in each well and assays were performed in duplicate. The GAPDH gene was used as the endogenous reference for each reaction. […]
as §3

DED mice = assay: Corneal fluorescein staining / clinical signs in experimental dry eye murine model; format: in vivo, mouse; conditions: for Clinical signs of DED / disease severity: anti-VEGF-C-treated vs untreated (saline) group, daily i.p.
Excerpt: as §1
(§6) Anti-VEGF-C antibodies (VGX-100; Vegenics Limited, Australia) were administered intraperitonealy daily from day 1 to day 10 to DED mice. Mice were assessed clinically using corneal fluorescent staining. Tissues from cornea, conjunctiva and draining lymph nodes were examined for cellular and molecular pathological changes.
Corneal lymphatics play an important role in mediating the corneal inflammation in dry eyes. Experiments: To validate this, inhibition of corneal neolymphangiogenesis was performed in a well characterized mouse model of DED described above. To see if inhibition of corneal neolymphangiogenesis could decrease ocular surface inflammation, anti-VEGF-C antibodies were administered i.p. daily from day −1 to day 10 to DED mice and assessed clinically using corneal fluorescein staining.
Methods (as described previously): Induction of Dry Eye Disease. Experimental Dry Eye Murine Model. Assessment of Corneal Surface: Corneal Fluorescein Staining. Immunohistochemistry: Monocyte/macrophage marker—CD11b; Pan-endothelial marker—CD31; Lymphatic endothelial marker—LYVE-1; Blood vessels: CD31^hi/LYVE-1; Lymph vessels: CD31^lo/LYVE-l^hi. Morphometry of Lymphangiogenesis: Automated image analysis program written using Mat lab. Lymphatic Area (LA)—total surface area of the lymphatic vessels when projected into the plane of the image. Lymphatic Caliber (LC)—measure of the diameters of the lymphatic vessels.
Anti-VEGF-C antibody and treatment regimen. Experimental design: Three groups: Normal, DE group treated with IP normal Saline (Untreated) and DE group treated with anti-VEGF-C antibody (VGX-100; a gift from Vegenics, Australia). Daily IP application of anti-VEGF-C antibody/Normal saline from day −1 to day 13. Dose: […] (20 mg/kg) in […] of Normal Saline.

[2] = test system: IL-1α, IL-1β, IL-6, IL-17; assay: Real-time PCR of proinflammatory cytokines in conjunctiva of DED mice; format: in vivo, mouse
Excerpt: as §1
Five mice (10 eyes) were included in each group. Two corneas were pooled together to equal as one sample and stored at −80° C. in Trizol (Invitrogen, Carlsbad, Calif.; catalog No. 15596026) until future use. Total RNA was isolated from these corneas using the RNeasy microkit (Qiagen, Valencia, Calif.; catalog No. 74004). Equal amounts of RNA were used to synthesize cDNA using SuperScript™ III Reverse Trancriptase (Invitrogen, Carlsbad, Calif.; catalog No. 18080) according to the manufacturer's recommendations. Real-Time PCR was performed using FAM-MGB dye labeled predesigned primers (Applied Biosystem, Foster City, Calif.) for GAPDH (assay ID.Mm999999 15_gl), VEGF-A (Mm00437304_ml), VEGF-C (Mrn00437313_ml), VEGF-D (Mm00438965_ml), VEGFR-2 (Mm00440099_ml), VEGFR-3 (Mm00433337_ml). 2.5 μl of cDNA was loaded in each well and assays were performed in duplicate. The GAPDH gene was used as the endogenous reference for each reaction. The results were normalized by the cycle threshold (CT) of GAPDH and the relative mRNA level in the normal mice was used as the normalized control.
as §6, §3

[3] = DED mice, VEGF-C blockade (summary)

Substance: VGX-100: human anti-VEGF-C monoclonal antibody produced by hybridoma ATCC PTA-4095; heavy/light chains SEQ ID NO: 34/35; from Vegenics
- Induction of T-cell mediated autoimmune response in draining lymph nodes (IL-17, IFN-γ by real-time PCR) [1]: significantly decreased induction
- Decrease of infiltration of CD11b+ cells in DED corneas (CD11b+ cells; DED corneas, day 14): 30%
- Corneal infiltration of CD11b+ cells (CD11b+ cells; [3]): decrease
- Corneal lymphangiogenesis / lymphatic growth (corneal lymphatics): suppresses corneallymphangiogenesis
- Corneal lymphangiogenesis / lymphatic growth (corneal lymphatics; listed as anti-VEGF-C): suppression of lymphatic growth
- Expression of VEGF-C in DE corneas (VEGF-C, -D, R3): decrease
- Expression of VEGF-D in DE corneas (VEGF-C, -D, R3): decrease
- Expression of VEGFR-3 (R3) in DE corneas (VEGF-C, -D, R3): decrease
- Corneal epitheliopathy (DED mice; VEGF-C blockade): decrease
- Clinical signs of DED / disease severity (DED mice): ameliorates clinical signs of DED
- Clinical signs of DED / disease severity (DED mice; listed as anti-VEGF-C): significant decrease in disease severity
- Clinical signs of DED / disease severity (DED mice; listed as anti-VEGF-C Ab): ameliorates clinical signs of DED
- Corneal fluorescein staining (CFS) score (DED mice; days 5, 9 and 13, vs untreated group, daily IP 400 µg (20 mg/kg) in 100 µl saline): significantly decreased
- mRNA expression levels of proinflammatory cytokines in the conjunctiva [2, 3]: decrease
- IL-1α expression in conjunctiva (real-time PCR) ([2]; treated vs untreated DED mice): significantly decreased expression
- IL-1β expression in conjunctiva (real-time PCR) ([2]; treated vs untreated DED mice): significantly decreased expression
- IL-6 expression in conjunctiva (real-time PCR) ([2]; treated vs untreated DED mice): significantly decreased expression
- IL-17 expression in conjunctiva (real-time PCR) ([2]; treated vs untreated DED mice): significantly decreased expression
